System: patients with uHTN
Assay: Study 124 Part 1: seated SBP in patients with uncontrolled hypertension (Example 9)
Assay type: in vivo, human
Set-up: key to Model-Based Least-Squares Mean Change from Baseline (SBP) / LSMEANS change from baseline (SBP) / Model-Based Least-Square Mean Change from Baseline (SBP): LS mean change from baseline in seated SBP, mmHg
Experimental: Study 124 is a double-blind, placebo-controlled, dose range finding, multicenter study conducted in patients with uHTN receiving background antihypertensive agent(s) that are either an ACEI or an ARB, an ACEI/ARB plus a thiazide diuretic, or an ACEI/ARB plus a calcium channel blocker. The study consists of two parts: Part 1 consists of an 8-week treatment period in which the patients are to be assigned to one of 4 dose groups in equal ratio testing 0.5 mg, 1 mg, and 2 mg baxdrostat effects compared to a placebo. Patients are to administer double-blind baxdrostat tablets once per day while they continue taking the background antihypertensive medications. After 8 weeks of double-blind treatment, patients were to enter part 2 of the study unless the patient was assigned to the 2 mg group and the SBP remains ≥130 mmHg. In part 2 of the study, all patients are to cease dosing with background antihypertensive medication and take only baxdrostat 2 mg dose as a monotherapy for 4 weeks.
Key inclusion criteria include that patients are on a stable regimen of anti-hypertensive agents for at least 8 weeks; and have a seated BP≥140 mmHg. Key exclusion criteria include a seated SBP≥180 mmHg and estimated glomerular filtration rate (eGFR)<30 mL/min/1.73 m^2.
In this table, CI=confidence interval, DBP=diastolic blood pressure, LS=least squares, SBP=systolic blood pressure, SE=standard error. The LS means, CIs, and p-values are from an MMRM model with change from baseline as the dependent variable with randomized treatment, visit, and treatment-by-visit interaction as fixed categorical effects; along with covariates of the baseline value, race (African American versus non-African American), and the type of background antihypertensive regimen. The restricted maximum likelihood estimation (REML) approach will be used with an unstructured covariance matrix and the Kenward-Roger approximation for degrees of freedom.

[1] = 2 mg (N = 9), mITT, Female Non-Hispanic Female Patients
[2] = 2 mg (N = 13), mITT, Non-Hispanic Male Patients
[3] = 2 mg (N = 16), mITT Population for Hispanic Compliant Patients
[4] = 2 mg (N = 16), mITT, Hispanic Male Patients
[5] = 2 mg (N = 19), mITT, Female Hispanic/Latino Patients
[6] = Female Hispanic/Latino, mITT, 0.5 mg, Week 6
[7] = Female Hispanic/Latino, mITT, 0.5 mg, Week 8
[8] = Hispanic or Latino, ITT, 0.5 mg, Week 6
[9] = Hispanic or Latino, ITT, 0.5 mg, Week 8
[10] = Hispanic or Latino, ITT, 1 mg, Week 6
[11] = Hispanic or Latino, ITT, 1 mg, Week 8
[12] = Hispanic or Latino, ITT, 2 mg, Week 6
[13] = Hispanic or Latino, ITT, 2 mg, Week 8
[14] = Placebo (N = 8), mITT Population for Compliance for Black Patients

## CCC(=O)N[C@@H]1CCCc2c(-c3ccc4c(c3)CCC(=O)N4C)cncc21 [baxdrostat, (R)—N-(4-(1-methyl-2-oxo-1,2,3,4-tetrahydroquinolin-6-yl)-5,6,7,8-tetrahydroisoquinolin-8-yl) propionamide]
1 mg, Wk 6
  LS Mean Change from Baseline (SE) in SBP: −13.5 (1.88) mm Hg
2 mg
  SBP Change from Baseline to Week 8, Mean: −19.3 mmHg
  SBP Change from Baseline to Week 8, Median: −18.0 mmHg
  SBP at Week 8, Median: 125.0 mmHg
  efficacy in adherent Hispanic/Latino patients: effective in adherent Hispanic/Latino, but efficacy response was substantially lower
  efficacy in the Black/African American subgroup: effective
2 mg (N = 9), Week 2, mITT, Female Non-Hispanic Female Patients
  Model-Based Least-Squares Mean Change from Baseline (SBP): −15.6
2 mg (N = 9), Week 4, mITT, Female Non-Hispanic Female Patients
  Model-Based Least-Squares Mean Change from Baseline (SBP): −23.8
2 mg (N = 9), Week 6, mITT, Female Non-Hispanic Female Patients
  Model-Based Least-Squares Mean Change from Baseline (SBP): −26.1
2 mg (N = 9), Week 8, mITT, Female Non-Hispanic Female Patients
  Model-Based Least-Squares Mean Change from Baseline (SBP): −32.8
[1]
  Comp w/ Placebo at Week 6, Diff (95% CI): −15.8 (−29.06, −2.47)
  Comp w/ Placebo at Week 8, Diff (95% CI): −19.8 (−29.87, −9.73)
2 mg (N = 13), Week 2, mITT, Non-Hispanic Male Patients
  Model-Based Least-Squares Mean Change from Baseline (SBP): −16.2
2 mg (N = 13), Week 4, mITT, Non-Hispanic Male Patients
  Model-Based Least-Squares Mean Change from Baseline (SBP): −17.4
2 mg (N = 13), Week 6, mITT, Non-Hispanic Male Patients
  Model-Based Least-Squares Mean Change from Baseline (SBP): −21.5
2 mg (N = 13), Week 8, mITT, Non-Hispanic Male Patients
  Model-Based Least-Squares Mean Change from Baseline (SBP): −22.3
[2]
  Comp w/ Placebo at Week 6, Diff (95% CI): −11.6 (−22.42, −0.83)
  Comp w/ Placebo at Week 8, Diff (95% CI): −7.4 (−18.32, 3.53)
2 mg (N = 16), Week 2, mITT Population for Hispanic Compliant Patients
  LSMEANS change from baseline (SBP): −4.6
2 mg (N = 16), Week 2, mITT, Hispanic Male Patients
  Model-Based Least-Squares Mean Change from Baseline (SBP): −5.1
2 mg (N = 16), Week 4, mITT Population for Hispanic Compliant Patients
  LSMEANS change from baseline (SBP): −13.9
2 mg (N = 16), Week 4, mITT, Hispanic Male Patients
  Model-Based Least-Squares Mean Change from Baseline (SBP): −14.6
2 mg (N = 16), Week 6, mITT Population for Hispanic Compliant Patients
  LSMEANS change from baseline (SBP): −15.4
2 mg (N = 16), Week 6, mITT, Hispanic Male Patients
  Model-Based Least-Squares Mean Change from Baseline (SBP): −17.5
2 mg (N = 16), Week 8, mITT Population for Hispanic Compliant Patients
  LSMEANS change from baseline (SBP): −22.8
2 mg (N = 16), Week 8, mITT, Hispanic Male Patients
  Model-Based Least-Squares Mean Change from Baseline (SBP): −21.9
[3]
  Comp w Placebo at Week 6, Diff (95% CI): −6.0 (−13.91, 2.00)
  Comp w Placebo at Week 8, Diff (95% CI): −6.6 (−13.07, −0.13)
[4]
  Comp w/ Placebo at Week 6, Diff (95% CI): −6.2 (−14.14, 1.67)
  Comp w/ Placebo at Week 8, Diff (95% CI): −3.2 (−9.28, 2.87)
2 mg (N = 19), Week 2, mITT, Female Hispanic/Latino Patients
  Model-Based Least-Squares Mean Change from Baseline (SBP): −6.0
2 mg (N = 19), Week 4, mITT, Female Hispanic/Latino Patients
  Model-Based Least-Squares Mean Change from Baseline (SBP): −7.1
2 mg (N = 19), Week 6, mITT, Female Hispanic/Latino Patients
  Model-Based Least-Squares Mean Change from Baseline (SBP): −8.0
2 mg (N = 19), Week 8, mITT, Female Hispanic/Latino Patients
  Model-Based Least-Squares Mean Change from Baseline (SBP): −12.6
[5]
  Comp w/ Placebo at Week 6, Diff (95% CI): −1.5 (−13.53, 10.44)
  Comp w/ Placebo at Week 8, Diff (95% CI): 6.5 (−4.02, 16.98)
2 mg QD, mITT
  SBP at Week 8, Mean: 126.6 mmHg
2 mg, Week 8
  SBP LS mean change from baseline (SE), MMRM: −19.8 (1.67) mm Hg
  SBP LS mean difference (SE) vs placebo: −3.2 (2.23) mmHg
2 mg, Wk 2
  LS Mean Change from Baseline (SE) in SBP: −8.8 (1.65) mm Hg
2 mg, Wk 4
  LS Mean Change from Baseline (SE) in SBP: −13.6 (1.65) mm Hg
2 mg, Wk 6
  LS Mean Change from Baseline (SE) in SBP: −15.7 (1.93) mm Hg
Female Hispanic/Latino, mITT, 0.5 mg, Week 2
  Model-based LS mean change from baseline (LSMEANS): −6.2
Female Hispanic/Latino, mITT, 0.5 mg, Week 4
  Model-based LS mean change from baseline (LSMEANS): −13.4
[6]
  Comp w/ Placebo, Diff (95% CI): −4.9 (−16.80, 6.97) 0.412
  Model-based LS mean change from baseline (LSMEANS): −11.3
[7]
  Comp w/ Placebo, Diff (95% CI): 3.0 (−7.45, 13.46) 0.567
  Model-based LS mean change from baseline (LSMEANS): −16.1
Hispanic or Latino, ITT, 0.5 mg, Week 2
  Model-based LS mean change from baseline (LSMEANS): −6.9
Hispanic or Latino, ITT, 0.5 mg, Week 4
  Model-based LS mean change from baseline (LSMEANS): −13.0
[8]
  Comp w/ Placebo, Diff (95% CI): −4.1 (−10.84, 2.69) 0.235
  Model-based LS mean change from baseline (LSMEANS): −13.3
[9]
  Comp w/ Placebo, Diff (95% CI): −1.1 (−4.54, 6.66) 0.709
  Model-based LS mean change from baseline (LSMEANS): −17.1
Hispanic or Latino, ITT, 1 mg, Week 2
  Model-based LS mean change from baseline (LSMEANS): −7.3
Hispanic or Latino, ITT, 1 mg, Week 4
  Model-based LS mean change from baseline (LSMEANS): −8.1
[10]
  Comp w/ Placebo, Diff (95% CI): −1.4 (−8.71, 5.92)
  Model-based LS mean change from baseline (LSMEANS): −10.6
[11]
  Comp w/ Placebo, Diff (95% CI): 4.0 (−2.00, 10.06)
  Model-based LS mean change from baseline (LSMEANS): −14.1
Hispanic or Latino, ITT, 2 mg, Week 2
  Model-based LS mean change from baseline (LSMEANS): −5.0
Hispanic or Latino, ITT, 2 mg, Week 4
  Model-based LS mean change from baseline (LSMEANS): −10.1
[12]
  Comp w/ Placebo, Diff (95% CI): −2.5 (−9.31, 4.24)
  Model-based LS mean change from baseline (LSMEANS): −11.8
[13]
  Comp w/ Placebo, Diff (95% CI): 1.9 (−3.69, 7.44)
  Model-based LS mean change from baseline (LSMEANS): −16.3
Placebo (N = 8), Week 2, mITT Population for Compliance for Black Patients
  Model-Based Least-Square Mean Change from Baseline (SBP): −7.7
Placebo (N = 8), Week 4, mITT Population for Compliance for Black Patients
  Model-Based Least-Square Mean Change from Baseline (SBP): −18.3
Placebo (N = 8), Week 6, mITT Population for Compliance for Black Patients
  Model-Based Least-Square Mean Change from Baseline (SBP): −20.6
Placebo (N = 8), Week 8, mITT Population for Compliance for Black Patients
  Model-Based Least-Square Mean Change from Baseline (SBP): −27.6
[14]
  Comp w/ Placebo at Week 6, Diff (95% CI): −10.3 (−24.04, 3.43)
  Comp w/ Placebo at Week 8, Diff (95% CI): −13.4 (−25.04, −1.69)

From patent US20260041679A1, “METHOD OF TREATING HYPERTENSION WITH THE ALDOSTERONE SYNTHASE INHIBITOR BAXDROSTAT” (CINCOR PHARMA, INC., priority 2022, published 2026)
